Measurements reported in patent US20220133702A1, “CYSTIC FIBROSIS TRANSMEMBRANE CONDUCTANCE REGULATOR MODULATORS FOR TREATING AUTOSOMAL DOMINANT POLYCYSTIC KIDNEY DISEASE” (The Johns Hopkins University, priority 2020, published 2022).

What was measured:
[1] = test system: cAMP in PN cells; experiment: Cyclic AMP enzyme immunoassay in cells; format: cell-based, mouse; details: for increase of cAMP activity: PN cells treated with forskolin or IBMX
Protocol: FIG. 4A, FIG. 4B, FIG. 4C, FIG. 4D, and FIG. 4E show (FIG. 4A-FIG. 4B) cAMP levels are reduced by VX-809. (FIG. 4A) cAMP levels in mouse tissue were reduced by VX-809. The kidney samples (n=6) analyzed were taken from those depicted in FIG. 1. (FIG. 4B) Confluent PN and PH cells were treated with VX-809 (10 μM) or DMSO for 16 hand then treated with forskolin (100 μM) for 30 min before the cells were harvested for the assay. Columns represent means±SEM. Statistical analysis was performed using a two-tailed Student's t-test. Each set of data is from three individual wells; Note that resting cAMP is greater in PN vs PH cells as previously shown (25). Also note that forskolin caused a large increase in cAMP. A smaller increase occurred with IBMX. However, the increase induced by forskolin alone was similar to that by IBMX plus forskolin. […] (FIG. 4C, FIG. 4D, and FIG. 4E) Adenylyl cyclase expression. (FIG. 4C) Western blot showing the expression of adenylyl cyclase (AC) 6 and AC3 in treated and control PN cells. (FIG. 4D-FIG. 4E) Columns represent means±SEM of the AC3 and AC6 expression. The data were analyzed by non-parametric t-test. The experiment was repeated four times. For all graphs, *P<0.05, **P<0.01, and ***P<0.001;
It has been shown previously in both animal and cell culture models of ADPKD that cells lacking functional PC1 have elevated cAMP levels when compared to normal. To assess the effect of CFTR correctors, cAMP activity was measured in PC1 conditional knockout mouse kidneys and in PN cells that were either left untreated or treated with VX-809. […] Cells were treated with forskolin, which increased cAMP levels drastically (FIG. 4B). It should be noted that VX-809 reduced the forskolin-induced increase in cAMP, indicating a direct action of VX-809 on adenylyl cyclase activity. […] Treating PN cells with forskolin or IBMX (FIG. 4B) increased the cAMP activity by approximately 10-fold.
Cyclic AMP assay. Confluent cells were treated with VX-809 (10 μM) or DMSO for 16 h before being harvested for assay. Cyclic AMP levels were measured with a direct cAMP Enzyme Immunoassay Kit (Sigma, #CA200) according to the manufacturer's protocol. The results are expressed as pmole/ml. Statistical analysis was performed using a two-tailed Student's t-test.

[2] = test system: Hsp27, Hsp70, and Hsp90 in PN cells; experiment: Disappearance of Hsps after translation block with cycloheximide; format: cell-based, mouse; details: cycloheximide 25 μM alone, over 8 h
Protocol: FIG. 9A, FIG. 9B, FIG. 9C, FIG. 9D, FIG. 9E, FIG. 9F, FIG. 9G, and FIG. 9H show Hsp27, HSp70, and Hsp90 expression in PN cells treated with VX-809 and/or cycloheximide. (A) Pkd1 null (PN) cells were treated with VX-809 (10 μM) and/or with cycloheximide (25 μM) for indicated time points before being harvested for the assay. (FIG. 9A) Western blot showing expression of Hsp27, Hsp70, and Hsp90 in VX-809-(16 h), cycloheximide-treated, or control PN cells. ((FIG. 9B. (FIG. 9C, and (FIG. 9D) Columns represent averages±standard errors of Hsp27, Hsp70, and Hsp90 expression in cells treated with VX-809 and/or cycloheximide. ((FIG. 9E) Western blot showing expression of Hsp27, Hsp70, and Hsp90 in PN cells treated with VX-809+cycloheximide or control PN cells. ((FIG. 9F, FIG. 9G, and FIG. 9H) Columns represent averages±standard errors of Hsp27, Hsp70, and Hsp90 expression in cells treated only with cycloheximide or in control PN cells. Data were analyzed by non-parametric t-test. The experiments were repeated 3-5 times. *P<0.05, **P<0.01;
To gain more insight into the mechanism whereby VX-809 alters Hsp protein levels, translation was inhibited by using cycloheximide and the disappearance of the three Hsps was monitored. […] Hsp90 was reduced by approximately 25%, and Hsp27 was unchanged.

Row | Structure (SMILES) | increase of cAMP activity [1] | steady-state levels of each of the Hsps [2] | elevation of cAMP activity ([1]; forskolin, as stated at the end of Example 4)
1 | CC(C)Cn1c(=O)n(C)c(=O)c2[nH]cnc21 [IBMX, 3-isobutyl-1-methylxanthine] | approximately 10 fold |  | 
2 | C[C@@H]1C[C@@H]([C@H](O)CC2CC(=O)NC(=O)C2)C(=O)[C@@H](C)C1 [cycloheximide] |  | unchanged | 
3 | C=C[C@@]1(C)CC(=O)[C@]2(O)[C@@]3(C)[C@@H](O)CCC(C)(C)[C@@H]3[C@H](O)[C@H](OC(C)=O)[C@@]2(C)O1 [forskolin] | approximately 10 fold |  | ~500 fold
